Source: paper PMC4474874, “Effect of JAK Inhibitors on Release of CXCL9, CXCL10 and CXCL11 from Human Airway Epithelial Cells” (PLoS ONE, 2015)
Like-named read-outs stand apart in the source and are kept apart here.

How the values were obtained:
STAT-1 [1] = experiment: STAT-1 DNA binding in BEAS-2B cells (TransAM); assay type: cell-based, human; details: IFNγ and IFNγ + TNFα stimulation
Description: STAT phosphorylation, nuclear translocation and DNA binding was determined using TransAM assays (Actif Motif, Rixensart, Belgium). Cells were treated with JAK inhibitors for 30 min prior to stimulation for 1h. Nuclear extracts were prepared using the Actif Motif assay reagents. Briefly, the nuclear extracts (10 μg) were incubated in DNA coated plates for 1h. After washing, antibodies supplied with the TransAM kit that were specific for the active forms of STAT1, STAT3, STAT5A and STAT5B were added to the wells and incubated for a further hour. The plates were washed and a secondary HRP-labelled anti-goat Ig antibody was added and the plates incubated for an hour. After washing, the assay was developed using the TMB substrate provided and the reaction stopped using 2N sulphuric acid. The plates were read at 450nm with a reference filter of 610nm. Data were then normalised to non-stimulated cells and calculated as fold change from baseline.
After 1 h, nuclear extracts of the cells were prepared and TransAM assays for STAT-1 (panel a) and STAT-3 (panel b) were performed. Data are presented as fold change from baseline ± SEM; n = 4.

STAT-1 [2] = experiment: STAT-1 phosphorylation in BEAS-2B cells (western blot); assay type: cell-based, human; details: for IC50: Homo sapiens, n = 4
Description: Enhanced chemiluminescence (ECL) reagent and Hybond-ECL nitrocellulose were obtained from GE Healthcare (Little Chalfont, UK). Bis-Tris SDS-PAGE (4–12%) gels and buffers were purchased from Invitrogen Ltd (Paisley, Scotland, UK). Antibodies against phosphorylated and total STAT-1 were purchased from New England Biolabs (Hitchin, UK). Epithelial cells were treated as indicated in six-well plates and lysed in 10 mM Tris-HCl buffer (pH 7.5) containing 150 mM NaCl, 2 mM EDTA, 1 mM sodium orthovanadate, 1% (v/v) Triton X-100, 1 mM phenylmethylsulfonyl fluoride, 10 μg/ml leupeptin, and 10 μg/ml aprotinin) for 30 min on ice. The lysates were then centrifuged at 12,000g for 15 min and protein concentration determined using the BCA protein assay (BioRad, Hemel Hempstead, UK). The proteins within the lysates (20 μg) were resolved with 4–12% Bis-Tris gels and transferred onto nitrocellulose membranes. The membranes were then blocked with 5% (w/v) non-fat milk in TBS containing 0.1% (v/v) Tween 20 for 1 h at room temperature and then incubated with antibodies specific for pSTAT-1 overnight at 4°C. The primary antibody was detected with peroxidase-conjugated secondary antibodies and labelled proteins were detected by ECL.
Having ascertained that JAK inhibitors could suppress the glucocorticosteroid-insensitive release of CXCL9, CXCL10 and CXCL11 from airway epithelial cells, it was important to confirm that this was via inhibition of the JAK-STAT pathway and not an off-target effect of these agents. […] BEAS-2B cells were stimulated with either IFNγ or IFNγ in combination with TNFα and the phosphorylation of STAT-1 was measured by western blotting as reported previously (Fig 4). […] There was no activation of STAT-5A or STAT-5B in this system (data not shown).
Cells were harvested and western blots performed for phosphorylated STAT-1 and total STAT-1 and quantified by densitometry. Data are representative of n = 4 independent experiments (panels a and c) and presented as mean±SEM, n = 4 (panels b and d).

[3] = test system: human primary airway epithelial cells; experiment: Release of CXCL9, CXCL10 and CXCL11 from human primary airway epithelial cells (ELISA); assay type: cell-based; details: for IC50 / EC50: Homo sapiens, Epithelial cell, pre-treated 1h; for IC50: pooled primary cells
Description: BEAS-2B cells (catalogue number CRL-9609) were purchased directly from American Type Culture Collection (Rockville, MD). Keratinocyte serum-free medium (K-SFM), bovine pituitary extract (BPE), and recombinant human epidermal growth factor (EGF) were purchased from Invitrogen (Paisley, UK). BEAS-2B cells were cultured in K-SFM containing 50 μg/ml BPE and 5 ng/ml EGF at 37°C in a humidified atmosphere comprising 5% (v/v) CO2 in air. Cells were cultured as monolayers in growth factor-free media for 24 h prior to stimulation. Human primary airway epithelial cells were cultured as monolayers from bronchial brushings from both male and female subjects (Table 1) and cultured in LHC-9 media (Invitrogen, Paisley, UK) in collagen (1% w/v) coated flasks. Samples were obtained from non-smokers, smokers and patients with COPD. […] The subjects were matched for age and smokers and COPD patients for smoking history (Table 1). All subjects gave informed written consent and the study was approved by the NRES London-Chelsea Research Ethics committee, study number 09/H0801/85.
Cell-free supernatants were removed 20h post-stimulation and assayed for CXCL9, CXCL10 and CXCL11 using Duoset ELISA kits (R & D Systems Europe, Abingdon, UK) according to the manufacturer’s instructions. The detection limits of these assays are 62pg/ml, 31pg/ml, and 7.8 pg/ml respectively.
Data are presented as mean ± SEM of ‘n’ independent determinations. Concentration-response curves were analysed by least-squares, non-linear iterative regression with the ‘Graphpad Prism’ curve fitting program (GraphPad software, San Diego, USA) and IC50 values were subsequently interpolated from curves of best-fit. Statistical differences were determined using the Kruskal–Wallis test followed by Dunn's multiple comparison test or a Wilcoxon signed rank test as appropriate. Values of P<0.05 were considered significant.
Media was harvested and the concentrations of CXCL9 (panels a and d), CXCL10 (panels b and e) and CXCL11 (panels c and f) were measured by ELISA. Data are presented as mean ± SEM, n = 10–13.

[4] = test system: human primary airway epithelial cells; experiment: IL-6 release from IFNγ + TNFα-stimulated human primary airway epithelial cells; assay type: cell-based
Description: In order to determine whether any of the inhibitory effects of the JAK inhibitors could be attributed to cell death, MTT assays were performed at the end of every experiment. […] In order to address this issue, the levels of IL-6 released from cells stimulated with IFNγ + TNFα were measured.

In the case of `CCc1cc(O)ccc1-c1ccc2c(-c3nc4ccccc4[nH]3)n[nH]c2c1` [PF1367550, 4-(3-(1H-benzo[d]imidazol-2-yl)-1H-indazol-6-yl)-3-ethylphenol], the “effect on STAT-1 DNA binding” value (STAT-1 [1]) is reported as “suppressed”, the “fold more potent at suppressing STAT-1 phosphorylation compared with PF956980” value (STAT-1 [2]) is reported as ~ 40 fold and the IC50 (STAT-1 [2]; IFNγ + TNFα stimulation) is reported as 32 ± 13 nM. The IC50 (STAT-1 [2]; IFNγ stimulation) was 24 ± 6 nM, the IC50 ([3]; IFNγ (10ng/ml) 20h, read-out: IC50, release of CXCL9) was 8.4 ± 1.3 nM and the IC50 ([3]; IFNγ (10ng/ml) 20h, read-out: IC50, release of CXCL10) was 10.4 ± 1.7 nM. The IC50 ([3]; IFNγ (10ng/ml) 20h, read-out: IC50, release of CXCL11) was 7 ± 0.9 nM, the IC50 ([3]; IFNγ+TNFα (10ng/ml) 20h, read-out: IC50, release of CXCL9) was 17.6 ± 3 nM and the IC50 ([3]; IFNγ+TNFα (10ng/ml) 20h, read-out: IC50, release of CXCL10) was 24.3 ± 2.4 nM. For the same molecule, the IC50 ([3]; IFNγ+TNFα (10ng/ml) 20h, read-out: IC50, release of CXCL11) was 14.5 ± 2.4 nM, the EC50 ([3]; primary cells from COPD patients, IFNγ (10 ng/ml) 20h, read-out: EC50, release of CXCL9) was 7.4 ± 1.3 nM and the EC50 ([3]; primary cells from COPD patients, IFNγ (10 ng/ml) 20h, read-out: EC50, release of CXCL10) was 7.1 ± 1.3 nM. For the same molecule, the EC50 ([3]; primary cells from COPD patients, IFNγ (10 ng/ml) 20h, read-out: EC50, release of CXCL11) was 6.3 ± 1.4 nM, the EC50 ([3]; primary cells from COPD patients, IFNγ +TNFα (10 ng/ml) 20h, read-out: EC50, release of CXCL9) was 20.8 ± 4.8 nM and the EC50 ([3]; primary cells from COPD patients, IFNγ +TNFα (10 ng/ml) 20h, read-out: EC50, release of CXCL10) was 29.1 ± 3.5 nM. It also gave an EC50 ([3]; primary cells from COPD patients, IFNγ +TNFα (10 ng/ml) 20h, read-out: EC50, release of CXCL11) of 16.7 ± 4.1 nM, an EC50 ([3]; primary cells from non-smokers, IFNγ (10 ng/ml) 20h, read-out: EC50, release of CXCL9) of 9.73 ± 3.5 nM and an EC50 ([3]; primary cells from non-smokers, IFNγ (10 ng/ml) 20h, read-out: EC50, release of CXCL10) of 12.8 ± 5.6 nM. For the same molecule, the EC50 ([3]; primary cells from non-smokers, IFNγ (10 ng/ml) 20h, read-out: EC50, release of CXCL11) was 8.5 ± 0.7 nM, the EC50 ([3]; primary cells from non-smokers, IFNγ +TNFα (10 ng/ml) 20h, read-out: EC50, release of CXCL9) was 14.1 ± 7.1 nM and the EC50 ([3]; primary cells from non-smokers, IFNγ +TNFα (10 ng/ml) 20h, read-out: EC50, release of CXCL10) was 20.3 ± 5.1 nM. The EC50 ([3]; primary cells from non-smokers, IFNγ +TNFα (10 ng/ml) 20h, read-out: EC50, release of CXCL11) was 13.7 ± 6.7 nM, the EC50 ([3]; primary cells from smokers, IFNγ (10 ng/ml) 20h, read-out: EC50, release of CXCL9) was 9 ± 3 nM and the EC50 ([3]; primary cells from smokers, IFNγ (10 ng/ml) 20h, read-out: EC50, release of CXCL10) was 12.3 ± 0.36 nM. The EC50 ([3]; primary cells from smokers, IFNγ (10 ng/ml) 20h, read-out: EC50, release of CXCL11) was 6.8 ± 1.9 nM, the EC50 ([3]; primary cells from smokers, IFNγ +TNFα (10 ng/ml) 20h, read-out: EC50, release of CXCL9) was 15.3 ± 4.8 nM and the EC50 ([3]; primary cells from smokers, IFNγ +TNFα (10 ng/ml) 20h, read-out: EC50, release of CXCL10) was 20.2 ± 3.6 nM. For the same molecule, the EC50 ([3]; primary cells from smokers, IFNγ +TNFα (10 ng/ml) 20h, read-out: EC50, release of CXCL11) was 11.8 ± 2.9 nM, the “fold more potent than PF956980, CXCR3 chemokine release” value ([3]; pooled human primary airway epithelial cells) was ~ 80 fold and the “IC50 for IL-6 release, fold greater than for inhibition of CXCR3 chemokine release” value [4] was ~ 50 fold. It also gave an IC50 ([4]; Homo sapiens, Epithelial cell, IFNγ + TNFα, n = 7) of 800 ± 200 nM.
